Data: patent publication US20230217926A1, “SELECTIVE HERBICIDES BASED ON SUBSTITUTED ISOXAZOLIN CARBOXAMIDES AND ISOXADIFEN-ETHYL” (BAYER AKTIENGESELLSCHAFT, priority 2020, published 2023)
Several values for one entry are separate records, joined by “and”; a condition that tells them apart may be missing. Equal values may be shown once.

Legend:
ZEAMA Sileno [1] = experiment: Safener seed treatment, pre-emergence herbicide, crop damage; format: in vivo, maize; design: key to Reduction [Difference]: % crop damage without safener minus % damage with safener; details: for Reduction [%] / Reduction [Difference]: isoxadifen-ethyl 0.25 g a.i./kg seed; for HER effect + SAF: isoxadifen-ethyl seed treatment 0.25 g a.i./kg seed; for HER effect: no safener
Protocol: For the safener seed treatment, sufficient seeds of the respective crops (spring wheat, TRZAS; spring barley, HORVS; maize, ZEAMA) were weighed into screw top glass bottles approximately twice the volume of the seeds.
The specified safeners, formulated as wettable powder (WP) were weighed out so that the specified rates (g a.i./kg seed) would be obtained, dissolved in water (1 ml water per 10 g of seeds), and added to the seeds to produce a slurry.
The bottles were capped and then placed in an overhead shaker (set at medium speed for ca. 60 minutes) so that the seeds were evenly coated with the slurry. The bottles were uncapped and the seeds were either placed on paper and dried for an interval of 3-4 hours prior to sowing, or directly sown. Seeds were placed in sandy loam soil in pots of a diameter of 7-8 cm, and covered with soil.
Pre-emergence application of the specified herbicides was done subsequently, on two sets of plants: a) seed treatment with safener, as described above
The herbicides were formulated as WP and was sprayed onto the soil surface as an aqueous suspension at an equivalent water application rate of 300 l/ha.
After application, the test plants were kept in the greenhouse under good growth conditions. At intervals up to 4 weeks after application (=28 days after treatment; DAT), % crop damage observed on the treated plants was scored visually in comparison to control plants that had not received any safener or herbicide treatment.
Values in the table below are mean values of at least 2 replicates.
Reduction[Difference]=herbicide damage without safener−herbicide damage with safener Reduction[%]=(Reduction[Difference]*100)/herbicide damage without safener […]
c) Plant Species, Variety: ZEAMA Sileno, Safener (SAF): Isoxadifen-Ethyl

ZEAMA Sileno [2] = experiment: Tank-mix post-emergence crop damage, greenhouse, visual assessment; format: in vivo, maize; design: key to Reduction [Difference]: % points: herbicide damage without safener − damage with safener; details: for HER effect + SAF / Reduction [%] / Reduction [Difference]: Final; for HER effect: no safener, Final assessment
Protocol: Seeds of crops (spring wheat, TRZAS; spring barley, HORVS; maize, ZEAMA) were placed in sandy loam soil in peat pots, covered with soil and cultivated in a greenhouse under good growth conditions. Two to three weeks after sowing, the test plants were treated at the 1 to 3-leaf stage. The herbicide/safener active compound combinations according to the invention, formulated as wettable powders or emulsion concentrates, and, in parallel tests, the correspondingly formulated individual active compounds were sprayed onto the green parts of the plants in various dosages using an amount of water of 300 l/ha (converted).
The pots were returned under good growing conditions in a glasshouse and a visual assessment of herbicidal effects was made at intervals from 1 to 3 weeks after herbicide application (DAT=days after treatment). Assessment was on a percentage basis in comparison with untreated control plants (0%=no injury, 100%=complete kill).
Reduction[Difference]=herbicide damage without safener−herbicide damage with safener Reduction[%]=(Reduction[Difference]*100)/herbicide damage without safener
a) Plant Species, Variety: ZEAMA Sileno, Safener (SAF): Isoxadifen-Ethyl

[3] = HER 40 g a.i./ha pre-emergence, 14 DAT
[4] = HER 40 g a.i./ha pre-emergence, 26 DAT
[5] = HER 80 g a.i./ha pre-emergence, 14 DAT
[6] = HER 80 g a.i./ha pre-emergence, 26 DAT
[7] = HER 2 g a.i./ha + isoxadifen-ethyl 50 g a.i./ha
[8] = HER 2 g a.i./ha, isoxadifen-ethyl 50 g a.i./ha
[9] = HER 2 g a.i./ha, 0%=no injury, 100%=complete kill
[10] = HER 8 g a.i./ha + isoxadifen-ethyl 50 g a.i./ha
[11] = HER 8 g a.i./ha, isoxadifen-ethyl 50 g a.i./ha
[12] = HER 32 g a.i./ha + isoxadifen-ethyl 100 g a.i./ha
[13] = HER 32 g a.i./ha, isoxadifen-ethyl 100 g a.i./ha

SMILES | HER effect + SAF (ZEAMA Sileno [2]; [10]) | Reduction [%] (ZEAMA Sileno [2]; [11]) | Reduction [Difference] (ZEAMA Sileno [2]; [11]) | HER effect (ZEAMA Sileno [2]; HER 8 g a.i./ha) | HER effect + SAF (ZEAMA Sileno [2]; [12]) | Reduction [%] (ZEAMA Sileno [2]; [13]) | Reduction [Difference] (ZEAMA Sileno [2]; [13]) | HER effect (ZEAMA Sileno [2]; HER 32 g a.i./ha) | further results
C=CC1(C(=O)NC2COC(C(=O)OC)C2)CC(c2cc(F)cc(F)c2)=NO1 (stereo not drawn) [Example 1.70] | – | – | – | – | – | – | – | – | Reduction [%] (ZEAMA Sileno [1]; [3]): 44%; Reduction [Difference] (ZEAMA Sileno [1]; [3]): 35; Reduction [%] (ZEAMA Sileno [1]; [4]): 53%; Reduction [Difference] (ZEAMA Sileno [1]; [4]): 45; HER effect + SAF (ZEAMA Sileno [1]; [3]): 45%; HER effect + SAF (ZEAMA Sileno [1]; [4]): 40%; HER effect (ZEAMA Sileno [1]; [3]): 80%; HER effect (ZEAMA Sileno [1]; [4]): 85%; Reduction [%] (ZEAMA Sileno [1]; [5]): 26%; Reduction [Difference] (ZEAMA Sileno [1]; [5]): 25; Reduction [%] (ZEAMA Sileno [1]; [6]): 21%; Reduction [Difference] (ZEAMA Sileno [1]; [6]): 20; HER effect + SAF (ZEAMA Sileno [1]; [5]): 70%; HER effect + SAF (ZEAMA Sileno [1]; [6]): 75%; HER effect (ZEAMA Sileno [1]; [5]): 95%; HER effect (ZEAMA Sileno [1]; [6]): 95%; HER effect + SAF (ZEAMA Sileno [2]; [7]): 35%; Reduction [%] (ZEAMA Sileno [2]; [8]): 60%; Reduction [Difference] (ZEAMA Sileno [2]; [8]): 53; HER effect (ZEAMA Sileno [2]; [9]): 88%
CCOC(=O)C1C=CC(NC(=O)C2(C(F)(F)F)CC(c3ccccc3)=NO2)C1 (stereo not drawn) [Example 1.9] | 22% | 72% | 56 | 78% | 22% | 74% | 63 | 85% | Reduction [%] (ZEAMA Sileno [1]; [5]): 83%; Reduction [Difference] (ZEAMA Sileno [1]; [5]): 25; HER effect + SAF (ZEAMA Sileno [1]; [5]): 5%; HER effect (ZEAMA Sileno [1]; [5]): 30%
C=CC1(C(=O)NC2COC(C(=O)OC)C2)CC(c2cc(F)cc(F)c2)=NO1 (stereo not drawn) [Example 1.69] | 33% | 64% | 59 | 92% | 30% | 68% | 63 | 93% | Reduction [%] (ZEAMA Sileno [1]; [3]): 42%; Reduction [Difference] (ZEAMA Sileno [1]; [3]): 40; Reduction [%] (ZEAMA Sileno [1]; [4]): 28%; Reduction [Difference] (ZEAMA Sileno [1]; [4]): 25; HER effect + SAF (ZEAMA Sileno [1]; [3]): 55%; HER effect + SAF (ZEAMA Sileno [1]; [4]): 65%; HER effect (ZEAMA Sileno [1]; [3]): 95%; HER effect (ZEAMA Sileno [1]; [4]): 90%
CCOC(=O)C1=CCC(NC(=O)C2(C)CC(c3cccc(F)c3)=NO2)C1 (stereo not drawn) [Example 1.59] | – | – | – | – | 10% | 85% | 57 | 67% | –
CC1(C(=O)NC2C=CC(C(=O)OCCSCc3ccccc3)C2)CC(c2cc(F)cc(F)c2)=NO1 (stereo not drawn) [Example 1.27] | – | – | – | – | 30% | 50% | 30 | 60% | –
COC(=O)C1C=CC(NC(=O)C2(C)CC(c3cc(Cl)cc(C#N)c3)=NO2)C1 (mixture of isomers) [Example 1.23] | 30% | 40% | 20 | 50% | 30% | 57% | 40 | 70% | –
CCOC(=O)C1C=CC(NC(=O)C2(CF)CC(c3cc(F)cc(F)c3)=NO2)C1 (stereo not drawn) [Example 1.17] | 20% | 79% | 75 | 95% | – | – | – | – | HER effect + SAF (ZEAMA Sileno [2]; [7]): 10%; Reduction [%] (ZEAMA Sileno [2]; [8]): 78%; Reduction [Difference] (ZEAMA Sileno [2]; [8]): 35; HER effect (ZEAMA Sileno [2]; [9]): 45%
C=CCOC(=O)C1CC(NC(=O)C2(C)CC(c3cc(F)cc(F)c3)=NO2)CO1 (mixture of isomers) [Example 1.75] | 23% | 68% | 50 | 73% | 43% | 51% | 45 | 88% | –
C=CCOC(=O)C1CC(NC(=O)C2(C=C)CC(c3cc(F)cc(F)c3)=NO2)CO1 (mixture of isomers) [Example 1.83] | 28% | 55% | 34 | 62% | 20% | 76% | 65 | 85% | –
C=CC1(C(=O)NC2COC(C(=O)OCCOC)C2)CC(c2cc(F)cc(F)c2)=NO1 (mixture of isomers) [Example 1.66] | 43% | 55% | 53 | 96% | 47% | 52% | 50 | 97% | –
COC(=O)C1C=CC(NC(=O)C2(C)CC(c3cc(F)cc(F)c3)=NO2)C1 (stereo not drawn) [Example 1.19] | 20% | 50% | 20 | 40% | – | – | – | – | –
C=CC1(C(=O)NC2COC(C(=O)OCCCl)C2)CC(c2cc(F)cc(F)c2)=NO1 (mixture of isomers) [Example 1.82] | 65% and 53% | 28% and 43% | 25 and 40 | 90% and 93% | 75% and 55% | 22% and 40% | 21 and 37 | 96% and 92% | –
